Measurements from US4626535A, “Cephalosporins” (Bayer Aktiengesellschaft, priority 1983, dated 1986).
≈ marks a conversion by molar mass, not a printed value.

Columns and labels:
Assay in all cases: in vitro MIC comparison in Isosensitest agar
Type in all cases: cell-based
Psdm. 7035 = settings: Pseudomonas
Description: (§1) The compound of Example 21 was compared in vitro with Cefotaxim (MIC-comparison in Isosensitest agar): […]

Staph. 133 = settings: Staphylococcus
Description: as §1

Staph. E = settings: Staphylococcus
Description: as §1

Psdm. Walter = settings: Pseudomonas
Description: as §1

Staph. 1756 = settings: Staphylococcus
Description: as §1

[1] = tested on: Enterobacter Cloacae 56US; settings: CLOACAE56US
Description: as §1

Staph. 25470 = settings: Staphylococcus
Description: as §1

Structure (SMILES)	MIC (Psdm. 7035)	MIC (Staph. 133)	MIC (Staph. E)	MIC (Psdm. Walter)	MIC (Staph. 1756)	MIC [1]	MIC (Staph. 25470)
C/C=C(\C(=O)NC1C(=O)N2C(C(=O)[O-])=C(C[n+]3ccccc3)CSC12)c1nsc(N)n1 (centres unmarked) [Example 21, 7-(1-(5-Amino-1,2,4-thiadiazol-3-yl)-1(Z)-propenecarboxamido)-3-pyridiniummethyl-3-cephem-4-carboxylate]	8 µg/mL (≈ 17.4 µM)	0.5 µg/mL (≈ 1.09 µM)	0.125 µg/mL (≈ 0.273 µM)	8 to 16 µg/mL (≈ 17.4 to 34.9 µM)	8 µg/mL (≈ 17.4 µM)	64 µg/mL (≈ 140 µM)	8 µg/mL (≈ 17.4 µM)
CO/N=C(\C(=O)N[C@@H]1C(=O)N2C(C(=O)O)=C(COC(C)=O)CS[C@H]12)c1csc(N)n1 [Cefotaxim]	16 µg/mL (≈ 35.1 µM)	1 µg/mL (≈ 2.2 µM)	0.5 µg/mL (≈ 1.1 µM)	16 µg/mL (≈ 35.1 µM)	128 µg/mL (≈ 281 µM)	> 128 µg/mL	> 128 µg/mL
